Measurements published in patent publication US12325726B2, “Organic compounds” (priority 2018, dated 2025).
Read-outs that look alike come from different tables or passages of the source.

Assays:
[1] = In vivo mouse pharmacokinetics, paired oral co-dosing, plasma and brain; design: species or system mice; settings: for Cmax / Tmax / AUC / concentration at 0.25 hr / concentration at 0.5 hr / concentration at 1 hr / concentration at 2 hr / concentration at 4 hr / concentration at 6 hr / Kp: 10 mg/kg po co-dosed; for AUC: 0.25-6 hr sampling; for Kp: brain/plasma, read-out: B/P AUC Ratio
Experimental: In a first study, the compounds of Examples 2 to 6 are compared to the Compound of Formula A (Example 1) using standard procedures in mice. In each test, two compounds are co-dosed in a single animal and the relative pharmacokinetics in plasma and brain is determined. Each test compound is dissolved in polyethylene glycol 400 vehicle, and administered orally at a dose of 10 mg/kg. After single dose oral administration of the test compounds together, plasma and brain levels are measured at 0.25, 0.5, 1, 2, 4, and 6 hours post-dosing. The mean values for maximum concentration, time to maximum concentration, and Area Under the Curve (AUC) for both compounds are determined. The results are summarized in the tables below for various paired co-dosing experiments: […]

human hepatocyte = assay: In vitro human hepatocyte stability assay; format: in vitro ADME; settings: human hepatocytes
Experimental: The compounds of Examples 1, 2, 5 and 6 are compared in a standard in vitro human hepatocyte stability assay run in duplicate. Compounds are provided as 1 M solutions in DMSO, and concentration of test compound is determined at 0.5, 1.0 and 4.0 hours after addition of the test compound. Results are shown below as a percentage of initial concentration.

[2] = brain, read-out: Brain concentration
[3] = plasma, read-out: Plasma concentration

Structure (SMILES) | Cmax ([1]; brain) [ng/g] | Tmax ([1]; brain) [h] | AUC ([1]; brain) [ng·h/mL] | concentration at 0.25 hr [1, 2] [ng/g] | concentration at 0.5 hr [1, 2] [ng/g] | concentration at 1 hr [1, 2] [ng/g] | concentration at 2 hr [1, 2] [ng/g] | concentration at 4 hr [1, 2] [ng/g] | concentration at 6 hr [1, 2] [ng/g] | Kp [1] | Cmax ([1]; plasma) [ng/mL] | Tmax ([1]; plasma) [h] | AUC ([1]; plasma) [ng·h/mL] | concentration at 0.25 hr [1, 3] [ng/mL] | concentration at 0.5 hr [1, 3] [ng/mL] | concentration at 1 hr [1, 3] [ng/mL] | concentration at 2 hr [1, 3] [ng/mL] | concentration at 4 hr [1, 3] [ng/mL] | concentration at 6 hr [1, 3] [ng/mL] | brain exposure of drug compared to the non-deuterated compound of Example 1 ([1]; 10 mg/kg po) | further results
[2H]C([2H])([2H])OC[C@@]1(O)CC[C@@]2(C)[C@@H](CC[C@@H]3[C@@H]2CC[C@]2(C)[C@@H](C(=O)Cn4ccnc4)CC[C@@H]32)C1 [Example 3, 1-((3R,5S,8R,9S,10S,13S,14S,17S)-3-hydroxy-3-((methoxy-d3)methyl)-10,13-dimethylhexadecahydro-1H-cyclopenta[a]phenanthren-17-yl)-2-(1H-imidazol-1-yl)ethan-1-one] | 2620 | 1 | 13200 | 2200 | 2000 | 2620 | 2370 | 2200 | 1980 | 1.2 | 2420 | 1 | 11300 | 2170 | 1570 | 2420 | 2020 | 1810 | 1720 | – | plasma and brain AUC values and B/P ratio compared to Example 1 ([1]; 10 mg/kg po): similar
[2H]c1nc([2H])n(C([2H])C(=O)[C@@]2([2H])CC[C@H]3[C@@H]4CC[C@H]5C[C@@](O)(COC([2H])([2H])[2H])CC[C@]5(C)[C@H]4CC[C@@]32C)c1[2H] (stereo partly drawn) [Example 6, 1-((3R,5S,8R,9S,10S,13S,14S,17S)-3-hydroxy-3-((methoxy-d3)methyl)-10,13-dimethylhexadecahydro-1H-cyclopenta[a]phenanthren-17-yl-17-d)-2-(1H-imidazol-1-yl-d3)ethan-1-one-2-d] | 5350 | 1 | 22400 | 3300 | 5350 | 5300 | 4880 | 3060 | 2110 | 2.7 | 2120 | 1 | 8200 | 1410 | 1850 | 2120 | 1650 | 1220 | 642 | much higher | brain/plasma AUC ratio compared to Example 1 ([1]; 10 mg/kg po): much higher; percentage of initial concentration (human hepatocyte; 0 hr): 100%; percentage of initial concentration (human hepatocyte; 0.5 hr): 83%; percentage of initial concentration (human hepatocyte; 1.0 hr): 69%; percentage of initial concentration (human hepatocyte; 4.0 hr): 45%
[2H]c1nc([2H])n(CC(=O)[C@H]2CC[C@H]3[C@@H]4CC[C@H]5C[C@@](O)(COC)CC[C@]5(C)[C@H]4CC[C@]23C)c1[2H] [Example 2, 1-((3R,5S,8R,9S,10S,13S,14S,17S)-3-hydroxy-3-(methoxymethyl)-10,13-dimethylhexadecahydro-1H-cyclopenta[a]phenanthren-17-yl)-2-(1H-imidazol-1-yl-d3)ethan-1-one] | 7600 | 1 | 29000 | 1840 | 5590 | 7600 | 6340 | 4890 | 1410 | 2.8 | 2550 | 1 | 10300 | 1180 | 1740 | 2550 | 2120 | 1760 | 774 | much higher | brain/plasma AUC ratio compared to Example 1 ([1]; 10 mg/kg po): much higher; percentage of initial concentration (human hepatocyte; 0 hr): 100%; percentage of initial concentration (human hepatocyte; 0.5 hr): 105%; percentage of initial concentration (human hepatocyte; 1.0 hr): 107%; percentage of initial concentration (human hepatocyte; 4.0 hr): 92%
[2H]c1nc([2H])n(CC(=O)[C@H]2CC[C@H]3[C@@H]4CC[C@H]5C[C@@](O)(COC([2H])([2H])[2H])CC[C@]5(C)[C@H]4CC[C@]23C)c1[2H] [Example 4, 1-((3R,5S,8R,9S,10S,13S,14S,17S)-3-hydroxy-3-((methoxy-d3)methyl)-10,13-dimethylhexadecahydro-1H-cyclopenta[a]phenanthren-17-yl)-2-(1H-imidazol-1-yl-d3)ethan-1-one] | 6530 | 1 | 25000 | 1710 | 5070 | 6530 | 5480 | 4200 | 1180 | 2.7 | 2520 | 1 | 9220 | 896 | 1490 | 2520 | 1950 | 1600 | 423 | much higher | brain/plasma AUC ratio compared to Example 1 ([1]; 10 mg/kg po): much higher
[2H]C(C(=O)[C@@]1([2H])CC[C@H]2[C@@H]3CC[C@H]4C[C@@](O)(COC([2H])([2H])[2H])CC[C@]4(C)[C@H]3CC[C@@]21C)n1ccnc1 (stereo partly drawn) [Example 5, 1-((3R,5S,8R,9S,10S,13S,14S,17S)-3-hydroxy-3-((methoxy-d3)methyl)-10,13-dimethylhexadecahydro-1H-cyclopenta[a]phenanthren-17-yl-17-d)-2-(1H-imidazol-1-yl)ethan-1-one-2-d] | 5700 | 1 | 23500 | 3450 | 5540 | 5700 | 5100 | 3180 | 2240 | 2.6 | 2300 | 1 | 8900 | 1490 | 1960 | 2300 | 1770 | 1340 | 725 | – | percentage of initial concentration (human hepatocyte; 0 hr): 100%; percentage of initial concentration (human hepatocyte; 0.5 hr): 83%; percentage of initial concentration (human hepatocyte; 1.0 hr): 80%; percentage of initial concentration (human hepatocyte; 4.0 hr): 52%
